The subject of data set [1] is HSC2, HSC3, HSC4, and OSC19 cells. As to the kind of experiment: Sensitivity of squamous cell carcinoma cell lines to cisplatin, cell viability by Celltiter-Glo after 72 hours. To be noted: OSC19 compared with HSC2, HSC3, and HSC4, cisplatin 1, 2.5, 5, 7.5 μM, FIG. 3. Format: cell-based. As to the method: Next, GSH levels in the cells were measured using GSH-Glo™ Glutathione Assay (Promega) to examine the correlation with the CD44v expression. Furthermore, in order to examine the sensitivity of the cell lines in which CD44 expression is suppressed to cisplatin, each cell line was seeded onto a 96-well plate at 2000 cells/well and cisplatin was added the following day at concentrations of 1, 2.5, 5, and 7.5 μM. After 72 hours, the cell viability was measured using Celltiter-Glo (Promega).
(In general: Cellular ATP, detected with luciferase, serves as a proxy for viable cell number.)

Data set [2] deals with OSC19 and HSC4 cells. Kind of data set: Intracellular reactive oxygen species by H2DCFDA staining with pimozide or sulfasalazine. In kind it is cell-based. To be noted: 24 hours, FIG. 11; for inductive effect on intracellular accumulation of reactive oxygen species, OSC19 versus HSC4: pimozide 1, 3, 10 μM, sulfasalazine 300 μM. How it is done: OSC19 and HSC4 cells were seeded onto 24-well glass-bottomed plate at 1×10^5 cells/well. On the following day, 0 μM (no addition), 1 μM, 3 μM, or 10 μM of pimozide or 300 μM of sulfasalazine was added. Subsequently, the cells were incubated for 24 hours, stained with H2DCFDA to visualize intracellular reactive oxygen species, and observed under a fluorescence microscope.

Data set [3] relates to OSC19 cells. As to the kind of experiment: Subcutaneous OSC19 transplant in nude mice, tumor volume and tumor mass. Format: in vivo. Particulars: 1 mg/kg intraperitoneally once daily from day 5 to day 35 versus saline; FIGS. 9 and 10. How it is done: Next, 1×10^6 OSC19 cells were subcutaneously transplanted into nude mice. After 5 days of transplantation, 1 mg/kg of pimozide or saline was intraperitoneally administered once daily to day 35. Short and long axes of each tumor were measured once every 3-4 days and a volume of the tumor was calculated using the following equation. Tumor volume=(long axis×(short axis)^2)/2 Specific tumor volume=tumor volume on the day measured/tumor volume at the beginning of administration Statistic analysis of the tumor volume was performed using Two-way ANOVA. Each tumor was removed after the treatment experiments and the mass of the tumor was measured. Statistic analysis of the tumor mass was performed using a t-test.

Data set [4] has as its system OSC19 cells. As to the kind of experiment: Level of reactive oxygen species by H2DCFDA staining, fluorescence microscopy. To be noted: 10 μM, 24 hours, FIG. 6. Format: cell-based. As to the method: Next, change in level of reactive oxygen species by the compounds having a high selectivity to OSC19 was examined. OSC19 cells were seeded onto 24-well glass-bottomed plate at 1×10^5 cells/well, and each compound was added at 10 μM on the following day. Subsequently, the cells were incubated for 24 hours, stained with 2′,7′-dichloro-dihydro-fluorescein-diacetate (H2DCFDA), which is a redox fluorescence indicator, and observed under a fluorescence microscope. In addition, their ability of inducing the reactive oxygen species was evaluated according to the fluorescence intensity. FIG. 6 is fluorescence micrographs of OSC19 cells treated with the compounds given in Table 1, showing the increase in ROS in OSC19 cells scored on 4 rating scales. The “4 rating scales” are as follows.

Data set [5] deals with OSC19 and HSC4 cells. As to the kind of experiment: Cell viability by Celltiter-Glo after 72 hours with pimozide or sulfasalazine. To be noted: FIGS. 7 and 8; for sensitivity of OSC19 cells versus HSC4 cells (cell viability): pimozide 0.3-100 μM, sulfasalazine 10-1000 μM. In kind it is cell-based. As to the method:
Cell viability was examined for OSC19 and HSC4 cells incubated in a medium supplemented with US077 (pimozide). […] OSC19 and HSC4 cells were seeded in 96-well plates at 3000 cells/well and 2000 cells/well, respectively. On the following day, 0 μM (no addition), 0.3 μM, 1 μM, 3 μM, 10 μM, 30 μM, or 100 μM of pimozide or 0 μM (no addition), 10 μM, 30 μM, 100 μM, 300 μM, or 1000 μM of sulfasalazine were added. Then, the cells were incubated for 72 hours and cell viability was measured using Celltiter-Glo (Promega).

The subject of data set [6] is OSC19 and HSC4 cells. As to the kind of experiment: Cell viability by Celltiter-Glo after 72-hour incubation with sertindole. Particulars: sertindole 0.19-45.00 μM, FIG. 12. In kind it is cell-based. As to the method:
OSC19 and HSC4 cells were seeded in 96-well plates at 3000 cells/well and 2000 cells/well, respectively, and started to be incubated. Two days after the beginning of the incubation, 0 μM (no addition), 0.19 μM, 0.56 μM, 1.67 μM, 5.00 μM, 15.00 μM, or 45.00 μM of sertindole was added. After 72-hour incubation, the number of the survived cells was measured using Celltiter-Glo (registered trademark) (Luminescent Cell Viability Assay; Promega). A ratio of the number of the survived cells to the number of the cells on the first day of incubation was calculated as a cell viability value.

Data set [7] has as its system OSC19 cells. As to the kind of experiment: Ratio of H2DCFDA-stained cells to Hoechst33342-stained cells with sertindole or sulfasalazine. In kind it is cell-based. Particulars: 10 μM sertindole versus 300 μM sulfasalazine, 24 hours; FIG. 13. As to the method:
OSC19 cells were seeded onto 24-well glass-bottomed plate at 1×10^5 cells/well and started to be incubated. Two days after the beginning of the incubation, 0.1 μM, 1 μM, or 10 μM of sertindole or 300 μM of sulfasalazine was added. DMSO was added to the control. The cells were then incubated for 24 hours, and 2′,7′-dichloro-dihydro-fluorescein-diacetate (H2DCFDA), which is a redox fluorescence indicator capable of emitting fluorescence when oxidized by reactive oxygen species in cells and Hoechst33342 that stains a cell nucleus were added. A ratio of the number of cells stained with H2DCFDA to the number of cells stained with Hoechst33342 was calculated.

Data set [8] concerns OSC19. Kind of data set: Combined use of pimozide and sulfasalazine, cell viability by CellTiter-Glo after 72 hours. Format: cell-based. To be noted: 150 μM of sulfasalazine alone, OSC19, 72 hours. As to the method: Oral squamous cell carcinoma cell line, OSC19, was seeded onto 96-well plates at 3000 cells/well. On the following day, a combination of 0 μM (no addition; only DMSO), 1 μM, 2 μM, or 3 μM of pimozide, and 0 μM (no addition; only DMSO), 10 μM, 50 μM, 100 μM, 150 μM, or 200 μM of sulfasalazine was added. Subsequently, cells were incubated for 72 hours, and cell viability was measured using a CellTiter-Glo Luminescent Cell Viability Assay kit (Promega). Effects obtained using pimozide and sulfasalazine at different concentrations are shown in a graph in FIG. 14.

As to `N.N.[Cl][Pt][Cl]` [cisplatin], the “sensitivity to cisplatin (cell viability)” value in data set [1] is on record as “significantly lower in sensitivity to cisplatin”.
For `O=c1[nH]c2ccccc2n1C1CCN(CCCC(c2ccc(F)cc2)c2ccc(F)cc2)CC1` [pimozide, Pimozide], the “inductive effect on intracellular accumulation of reactive oxygen species compared with sulfasalazine” value in data set [2] (pimozide 1, 3, 10 μM versus sulfasalazine 300 μM) is listed as “significantly greater inductive effect on intracellular accumulation of reactive oxygen species at a significantly lower concentration as compared with sulfasalazine”. Besides, the “inductive effect on intracellular accumulation of reactive oxygen species, OSC19 versus HSC4” value in data set [2] is given as “inductive effect on intracellular accumulation of reactive oxygen species selectively in OSC19 cells”. Also, in data set [3], the “tumor volume and tumor mass on day 35 (proliferation of OSC19 cells in mice)” value is given as “inhibition of proliferation of the OSC19 cells”. For the same molecule, the “increase in ROS in OSC19 cells scored on 4 rating scales” value in data set [4] is “significantly great increase in ROS level”. In data set [5], the “inhibitory effect on cell proliferation, concentration compared with sulfasalazine” value is “inhibitory effect on cell proliferation at a lower concentration than sulfasalazine” and the “sensitivity of OSC19 cells versus HSC4 cells (cell viability)” value is given as “higher sensitivity to pimozide than the HSC4 cells”.
Consider `O=C1NCCN1CCN1CCC(c2cn(-c3ccc(F)cc3)c3ccc(Cl)cc23)CC1` [sertindole, Sertindole], for which the “inhibition of cell proliferation, OSC19 versus HSC4 (cell viability)” value in data set [6] is given as “cell proliferation was inhibited by the addition of a lower concentration of sertindole for OSC19 than for HSC4”. The “intracellular ROS level (H2DCFDA-stained / Hoechst33342-stained cells) compared with sulfasalazine” value in data set [7] is “intracellular ROS level was higher as compared with a case where sulfasalazine was added at 30 times higher concentration”.
For Sulfasalazine, the “inductive effect on intracellular accumulation of reactive oxygen species, OSC19 versus HSC4” value in data set [2] is “selectively in OSC19 cells as in the case of sulfasalazine”. In data set [5], the “sensitivity of OSC19 cells versus HSC4 cells (cell viability)” value is “higher sensitivity to sulfasalazine than the HSC4 cells”. In addition, in data set [8], the mortality of cells result is “about 30%”.

For the origin of these results see US9814707B2, “Cancer stem cell proliferation inhibitor and intracellular active oxygen accumulation inducer” (Keio University, priority 2014, dated 2017).
